The source made the active and inactive calls. The rule behind the calls is not given here.

This note sets out measurements from ChEMBL document CHEMBL1142081, “Evaluation of the in vivo activity of tribendimidine against Schistosoma mansoni, Fasciola hepatica, Clonorchis sinensis, and Opisthorchis viverrini” (2007).

Assay [1] in a line: Reduction of worm burden in Clonorchis sinensis infected Wistar rat at 150 mg/kg, po relative to control. In kind it is functional. Set-up: scale not given: the % may be the effect or the level left.
Assay [2] can be described thus: Reduction of worm burden in Clonorchis sinensis infected Wistar rat at 75 mg/kg, po relative to control. Set-up: scale not given: the % may be the effect or the level left. The format is functional.
A short description of assay [3]: Reduction of worm burden in Opisthorchis viverrini infected Syrian Gold hamster at 400 mg/kg, po relative to control. In kind it is functional. Set-up: scale not given: the % may be the effect or the level left.
Assay [4] is described as follows: Reduction of worm burden in Opisthorchis viverrini infected Syrian Gold hamster at 200 mg/kg, po relative to control. Set-up: scale not given: the % may be the effect or the level left. The format is functional.
Assay [5] relates to Fasciola hepatica. Nature of the assay: Reduction of worm burden in Fasciola hepatica infected Wistar rat at 800 mg/kg, po relative to control. In kind it is functional. More on the design: scale not given: the % may be the effect or the level left.
Assay [6] concerns Fasciola hepatica. Nature of the assay: Effect on Fasciola hepatica infected Wistar rat assessed as infection cured rats at 800 mg/kg, po relative to control. In kind it is functional, organism-based. More on the design: dose 800 mg/kg.
For assay [7], the system named is Schistosoma mansoni. Nature of the assay: Reduction of total worm burden in Schistosoma mansoni Liberian infection NMRI mouse at 800 mg/kg, po relative to control. In kind it is functional. Set-up: scale not given: the % may be the effect or the level left.
The subject of assay [8] is Schistosoma mansoni. Description: Reduction of female worm burden in Schistosoma mansoni Liberian infected NMRI mouse at 800 mg/kg, po relative to control. In kind it is functional. Set-up: scale not given: the % may be the effect or the level left.
Assay [9] deals with Schistosoma mansoni. Nature of the assay: Effect on Schistosoma mansoni Liberian infected NMRI mouse assessed as infection cured mice at 400 mg/kg, po relative to control.

Consider `C/C(=N/c1ccc(/N=C/c2ccc(/C=N/c3ccc(/N=C(/C)N(C)C)cc3)cc2)cc1)N(C)C` [TRIBENDIMIDINE], for which the Activity in assay [1] came out at 99.1%; in assay [2], 68.9%; in assay [3], 95.7%; in assay [4], 61.4%; with Fasciola hepatica [5], 0%; in the assay on Schistosoma mansoni [7] it was 0%. In the assay with Schistosoma mansoni [8], this compound showed an Activity of 0%. In addition, the outcome with Fasciola hepatica [6] and in the assay on Schistosoma mansoni [9] was Active.
